In brackets after ≈: the same amount, converted by molar mass. Where two headings read alike, the source gives them in different places.

Among the data in US4000160A, “Pyrrolyl oxyphenyl ketones” (Sterling Drug Inc., priority 1975, dated 1976) are inhibition of growth and MIC values, retold here.

Type in all cases: cell-based
Assay [1] has as its system Ceratocystis ulmi. Kind of assay: agar growth test, percent inhibition of Ceratocystis ulmi. The conditions noted are these: 120 h, read-out: % Inhibition, Agar Growth. On the procedure: (§1) The test procedures, the agar growth and shake culture tests, used to determine this latter activity are described as follows: In the agar growth test a solution of 2 mg. of the test compound in 2 ml. of acetone was prepared and 0.2 ml. of this solution was added via sterile glass pipette to 20 ml. of molten (42° C.) sterile potato dextrose agar. Mixing was accomplished by repeated inversion of the tube. The mixture was poured into a sterile Petri dish, allowed to solidify at room temperature, and then was inoculated by placing in the center of the agar-chemical mixture a section (3 mm. diameter) of agar permeated with the mycelium of Ceratocystis ulmi. The inoculated dish was incubated at 25° C. for 5 days when the diameter of growth was measured and compared to the growth which had occurred in a control culture. The percent inhibition was calculated as: [formula] In the shake culture test, a 0.2 ml. aliquot of an acetone solution of the test compound (2 mg. in 2 ml.) was added to 20 ml. of sterile potato dextrose broth in a sterile 250 ml. Erlenmeyer flask. The flask was stoppered with a plug of sterile cotton, and the mixture was shaken for one hour on a New Brunswick "Gyrotatary" shake table. The mixture was inoculated by addition of a section (3 mm. diameter) of agar permeated with the mycelium of Ceratocystis ulmi and returned to the shake table where shaking was continued for five days at room temperature. The optical density of the mixture was measured, using an uninoculated sample of the broth as a blank, and compared with a control sample. The percent inhibition was calculated as: […]
(§2) Data obtained for the compounds of the invention in in vitro tests against fungal organism, Ceratocystis ulmi, in the agar growth and shake culture tests in comparison with the known antibiotic, pyoluteorin, at a standard dilution of 10 parts per million are given in terms of percent inhibition in the table below. The compounds are identified by reference to the example number above where their preparation is described.

In assay [2] the test system is Ceratocystis ulmi. Description: shake culture test, percent inhibition of Ceratocystis ulmi. The conditions noted are these: 120 h, read-out: % Inhibition, Shake Culture. As to the method: as §1, §2
The test system of assay [3] is Escherichia coli 198. Kind of assay: in vitro antibacterial test (modified Autotiter method), minimum inhibitory concentration. On the procedure:
(§3) The antibacterial activity was determined using a modification of the Autotiter method described by Goss et al., Applied Microbiology, 16 (No. 9), 1414-1416 (1968) in which a 1000 mcg./ml. solution of the test compound is prepared. To the first cup of the Autotray is added 0.1 ml. of the test solution. Activation of the Autotiter initiates a sequence of operations by which 0.05 ml. of the test compound solution is withdrawn from this cup by a Microtiter transfer loop and diluted in 0.05 ml. of sterile semisynthetic medium (glucose). After this operation, 0.05 ml. of inoculated semisynthetic medium is added automatically to each cup. The overall operation results in final drug concentrations ranging from 500 to 0.06 mcg./ml. in twofold decrements. The Autotray is incubated for 18-20 hours at 37° C., at which time the trays are examined visually for growth as evidenced by turbidity, and the concentration of the last sample in the series showing no growth (or no turbidity) is recorded as the minimal inhibitory concentration (MIC). The compounds of formula I were thus found to be antibacterially effective against Staphylococcus aureus, Pseudomonas aeruginosa, Escherichia coli, and Proteus vulgaris at concentrations from 2 to 500 mcg./ml.
(§4) Data, expressed in terms of the minimum inhibitory concentration in mcg./ml., obtained in in vitro tests of the compounds of the invention in comparison with pyoluteorin against the bacterial organisms Staphylococcus aureus 209, Escherichia coli 198, Klebsiella pneumoniae 39645, Proteus vulgaris 9920, and Pseudomonas aeruginosa 211 (identified below as organisms A, B, C, D and E, respectively) are given in the table below.

The test system of assay [4] is Proteus vulgaris 9920. Described as above. On the procedure:
as §3, §4

Assay [5] has as its system Pseudomonas aeruginosa 211. The description is as above. As to the method:
as §3, §4

In assay [6] the test system is Klebsiella pneumoniae 39645. The description is as above. The conditions noted are these: organism C. As to the method: as §3, §4
Assay [7] deals with Staphylococcus aureus 209. Described as above. As to the method:
as §3, §4

Setting [8] is: 10 parts per million, agar, 25° C., 5 days.
Setting [9] is: 10 parts per million, broth, room temperature, five days.
The mark [10] stands for this setting: organism B, Escherichia coli 198, in vitro, read-out: minimum inhibitory concentration (MIC).
Where [11] appears, read: organism D, Proteus vulgaris 9920, in vitro, read-out: minimum inhibitory concentration (MIC).
Setting [12] is: organism E, Pseudomonas aeruginosa 211, in vitro, read-out: minimum inhibitory concentration (MIC).
The mark [13] stands for this setting: organism A, Staphylococcus aureus 209, in vitro, read-out: minimum inhibitory concentration (MIC).

Take `COc1ccc(C(=O)c2cc(Cl)c(Cl)[nH]2)c(OC)c1` [Example 1, 4,5-dichloropyrrol-2-yl 2,4-dimethoxyphenyl ketone]: the inhibition of growth at 10 µg/mL in assay [1] (setting [8]) was 28%; in assay [2] (setting [9]), 30%. Moreover, the MIC is > 125 µg/mL in assay [3] (setting [10]); > 125 µg/mL in assay [4] (setting [11]); > 125 µg/mL in assay [5] (setting [12]); > 125 µg/mL in assay [6]; 62.5 µg/mL (≈ 208 µM) in assay [7] (setting [13]).

As to `COc1ccc(OC)c(C(=O)c2cc(Br)c(Br)[nH]2)c1` [Example 2, 4,5-dibromopyrrol-2-yl 2,5-dimethoxyphenyl ketone], the inhibition of growth at 10 µg/mL is 32% in assay [1] (setting [8]) and 38% in assay [2] (setting [9]). For the same compound, the MIC is > 125 µg/mL in assay [3] (setting [10]); > 125 µg/mL in assay [4] (setting [11]); > 125 µg/mL in assay [5] (setting [12]); > 125 µg/mL in assay [6]; 31.3 µg/mL (≈ 80.5 µM) in assay [7] (setting [13]).

Regarding `COc1ccc(C(=O)c2cc(Cl)c(Cl)[nH]2)cc1OC` [Example 3, 4,5-dichloropyrrol-2-yl 3,4-dimethoxyphenyl ketone], the inhibition of growth at 10 µg/mL is 25% in assay [1] (setting [8]) and 75% in assay [2] (setting [9]). The MIC in assay [3] (setting [10]), in assay [4] (setting [11]), in assay [5] (setting [12]), in assay [6] and in assay [7] (setting [13]) was > 125 µg/mL throughout.

`COc1ccc(OC)c(C(=O)c2cc(Cl)c(Cl)[nH]2)c1` [Example 4, 4,5-dichloropyrrol-2-yl 2,5-dimethoxyphenyl ketone]: the inhibition of growth at 10 µg/mL in assay [1] (setting [8]) was found to be 48%; in assay [2] (setting [9]), 72%. For the same compound, the MIC in assay [3] (setting [10]), in assay [4] (setting [11]), in assay [5] (setting [12]), in assay [6] and in assay [7] (setting [13]) was > 125 µg/mL each time.

Take `O=C(c1cc(Br)c(Br)[nH]1)c1cc(O)ccc1O` [Example 5, 4,5-dibromopyrrol-2-yl 2,5-dihydroxyphenyl ketone]: the results for the inhibition of growth at 10 µg/mL in assay [1] (setting [8]) and in assay [2] (setting [9]) were 28% and 83%, respectively. For the same compound, the MIC is 125 µg/mL (≈ 346 µM) in assay [3] (setting [10]); 62.5 µg/mL (≈ 173 µM) in assay [4] (setting [11]); 125 µg/mL (≈ 346 µM) in assay [5] (setting [12]); > 125 µg/mL in assay [6]; 15.6 µg/mL (≈ 43.2 µM) in assay [7] (setting [13]).

On to `COc1ccc(C(=O)c2cc(Br)c(Br)[nH]2)cc1` [Example 6, 4,5-dibromopyrrol-2-yl 4-methoxyphenyl ketone], for which the inhibition of growth at 10 µg/mL turned out to be 11% in assay [1] (setting [8]) and 66% in assay [2] (setting [9]). The MIC in assay [3] (setting [10]), in assay [4] (setting [11]), in assay [5] (setting [12]), in assay [6] and in assay [7] (setting [13]) was > 125 µg/mL each time.

As for `COc1ccc(C(=O)c2cc(Cl)c(Cl)[nH]2)cc1` [Example 7, 4,5-dichloropyrrol-2-yl 4-methoxyphenyl ketone], the figures for the inhibition of growth at 10 µg/mL in assay [1] (setting [8]) and in assay [2] (setting [9]) were 32% and 61%, respectively. Further, the MIC in assay [3] (setting [10]) was 15.6 µg/mL (≈ 57.8 µM); in assay [4] (setting [11]), 62.5 µg/mL (≈ 231 µM); in assay [5] (setting [12]) it was > 250 µg/mL; in assay [6], > 62.5 µg/mL; in assay [7] (setting [13]), > 31.6 µg/mL.

As to `COc1cccc(C(=O)c2cc(Br)c(Br)[nH]2)c1` [Example 8, 4,5-dibromopyrrol-2-yl 3-methoxyphenyl ketone], the inhibition of growth at 10 µg/mL worked out at 28% in assay [1] (setting [8]) and 75% in assay [2] (setting [9]). For the same compound, the MIC in assay [3] (setting [10]) is 250 µg/mL (≈ 696 µM); in assay [4] (setting [11]), 125 µg/mL (≈ 348 µM); in assay [5] (setting [12]) it was > 125 µg/mL; in assay [6], > 250 µg/mL; in assay [7] (setting [13]) it was 250 µg/mL (≈ 696 µM).

Turning to `O=C(c1cc(Cl)c(Cl)[nH]1)c1ccc(O)cc1O` [Example 9, 4,5-dichloropyrrol-2-yl 2,4-dihydroxyphenyl ketone], the inhibition of growth at 10 µg/mL in assay [1] (setting [8]) was determined as 55%; in assay [2] (setting [9]) it was 72%. For the same compound, the MIC in assay [3] (setting [10]) is 31.3 µg/mL (≈ 115 µM); in assay [4] (setting [11]), > 125 µg/mL; in assay [5] (setting [12]), > 125 µg/mL; in assay [6], > 125 µg/mL; in assay [7] (setting [13]) it was 3.9 µg/mL (≈ 14.3 µM).

On to `O=C(c1cc(Cl)c(Cl)[nH]1)c1cc(O)ccc1O` [Example 10, 4,5-dichloropyrrol-2-yl 2,5-dihydroxyphenyl ketone], for which the inhibition of growth at 10 µg/mL in assay [1] (setting [8]) was found to be 21%; in assay [2] (setting [9]), 64%. Moreover, the MIC in assay [3] (setting [10]) was found to be 125 µg/mL (≈ 459 µM); in assay [4] (setting [11]), 62.5 µg/mL (≈ 230 µM); in assay [5] (setting [12]), 125 µg/mL (≈ 459 µM); in assay [6], 125 µg/mL (≈ 459 µM); in assay [7] (setting [13]), 0.98 µg/mL (≈ 3.6 µM).

Take `O=C(c1cc(Cl)c(Cl)[nH]1)c1c(O)cccc1O` [Pyoluteorin, 4,5-dichloropyrrol-2-yl 2,6-dihydroxyphenyl ketone, reference compound]: the inhibition of growth at 10 µg/mL in assay [1] worked out at 4%; in assay [2] it was 38%. Moreover, the MIC in assay [3] (Escherichia coli, 198, read-out: minimum inhibitory concentration (MIC)) is 6.2 µg/mL (≈ 22.8 µM); in assay [4] (Proteus vulgaris, 9920, read-out: minimum inhibitory concentration (MIC)) it was 125 µg/mL (≈ 459 µM); in assay [5] (Pseudomonas aeruginosa, 211, read-out: minimum inhibitory concentration (MIC)), 125 µg/mL (≈ 459 µM); in assay [7] (Staphylococcus aureus, 209, read-out: minimum inhibitory concentration (MIC)), 3.1 µg/mL (≈ 11.4 µM).
